Numbered stars: 1 amine (or outer) side, 2 acyl side, 3 side chain; on linkers, the order of the positions; unused ones are H or OH. Bridge positions count the residues as written; N and C are the ends. Square brackets hold non-standard residues; d marks the D form. Peptide text beside a SMILES is read from it. * marks the point of attachment. NH(2-ClPh) = Clc1ccccc1N*; dDab = NCC[C@@H](N)C(=O)O; Octanoyl = CCCCCCCC(=O)*; Dab = NCC[C@H](N)C(=O)O; CO = O=C([*:1])[*:2]
How the values were obtained:
HepG2 = conditions: CC50 HepG2 (µM)
[1] = tested on: S. aureus ATCC 25923, MSSA; assay: microbe, parasite or virus in culture; type: cell-based, Staphylococcus aureus; conditions: MHB, 5 × 10^5 CFU/mL, read visually after 18 h at 37 °C
Experimental: (§1) Bacteria were either obtained from American Type Culture Collection (ATCC; Manassas, VA, USA) or independent academic clinical isolate collections, as listed in Table S2. Bacteria were cultured in nutrient broth (NB; Bacto Laboratories, catalog no. 234000) or Muller Hinton broth (MHB; Bacto Laboratories, catalog no. 211443) at 37 °C overnight with shaking (∼180 rpm). A sample of each culture was then diluted 50-fold in fresh MHB and incubated at 37 °C for 1.5–3 h with shaking (∼180 rpm). Compound stock solutions were prepared as 0.64 or 2.56 mg/mL in water. The compounds, at twice the final desired concentration, were serially diluted 2-fold across the wells of 96-well plates (Polystyrene, Corning, catalogue No. 3370). Mid log phase bacterial cultures (after 1.5–3 h incubation) were diluted to a final concentration of 5 × 10^5 colony forming units (CFU)/mL, and 50 μL was added to each well giving a final compound concentration range of 32 μg/mL to 0.015 μg/mL (128–0.06 μg/mL for colistin and polymyxin B against the polymyxin resistant clinical isolates). MICs were determined visually after 18 h of incubation at 37 °C, with the MIC defined as the lowest compound concentration at which no bacterial growth was visible.
(§2) Table S2. Bacterial strains used for Minimum Inhibitory Concentration (MIC) […]
(§3) Organism Strain Strain description Strain Source
(§4) Escherichia coli ATCC 25922 FDA strain Seattle 1946 ATCC
(§5) Klebsiella pneumoniae ATCC 13883 Control strain ATCC
(§6) Klebsiella pneumoniae ATCC 700603 Multi-drug resistant ATCC
(§7) Klebsiella pneumoniae BAA-2146 Metallo-beta-lactamase- ATCC
(§8) Acinetobacter baumannii ATCC 19606 Type strain ATCC
(§9) Pseudomonas aeruginosa ATCC 27853 Type strain ATCC
(§10) Pseudomonas aeruginosa FADDI-PA070 Clinical isolate, Nation and Li labs, polymyxin resistant Monash University
(§11) Clinical isolate, Wang Hengzhuang, Pseudomonas aeruginosa PA9704 polymyxin resistant University Hospital of […]
(§12) Ptyela Clinical isolate, Ilias Karaiskos and Acinetobacter baumannii Carbapenem & Helen Giamarellou
(§13) Clinical isolate, Medicine, Hygeia
(§14) Klebsiella pneumoniae Koprana Carbapenem, & General Hospital, […]
(§15) Clinical isolate, (Instituto Dante […]
(§16) polymyxin resistant Cardiologia, São […]

[2] = tested on: A. baumannii CI Ptyela 100734512:2, PmxR; assay: microbe, parasite or virus in culture; type: cell-based, Acinetobacter baumannii; conditions: carbapenem & polymyxin resistant clinical isolate; MHB, 5 × 10^5 CFU/mL, 18 h at 37 °C
Experimental: as §1, §2, §3, §4, §5, §6, §7, §8, §9, §10, §11, §12, §13, §14, §15, §16

HepG2 cells = assay: Cytotoxicity assay (resazurin assay); type: cell-based, human; conditions: 4000 cells/well, 24 h incubation with compound, fluorescence 560/590
Experimental: Cytotoxicity to HEK293 and HepG2 cells was determined using the resazurin assay.[67],[68] […] Compounds were then added into each well. After 24 h incubation, 5 μM resazurin was added per well and incubated at 37 °C for 2 h. Fluorescence intensity was then read using a Polarstar Omega with excitation/emission 560/590. The data were then analyzed using GraphPad Prism 6 software. CC50 values were determined using GraphPad Prism 6 software (Inc. La Jolla, CA).

[3] = tested on: P. aeruginosa PA9704, PmxR; conditions: MIC P. aeruginosa PA9704, PmxR (µg/mL)
[4] = tested on: K. pneumoniae CI 138-16357-20362, PmxR; conditions: MIC K. pneumoniae CI 138-16357-20362, PmxR (µg/mL)
[5] = tested on: P. aeruginosa FADDI-PA070, PmxR; conditions: MIC P. aeruginosa FADDI-PA070, PmxR (µg/mL)
[6] = tested on: A. baumannii CI Ptyela 100734512:2, PmxR; conditions: MIC A. baumannii CI Ptyela 100734512:2, PmxR (µg/mL)
[7] = tested on: S. aureus ATCC 25923, MSSA; conditions: MIC S. aureus ATCC 25923, MSSA (µg/mL)
[8] = tested on: K. pneumoniae CI Koprana 100650661:1, PmxR; conditions: MIC K. pneumoniae CI Koprana 100650661:1, PmxR (µg/mL)
[9] = tested on: P. aeruginosa PA9704, PmxR; type: cell-based, Pseudomonas aeruginosa; conditions: polymyxin resistant clinical isolate; MHB, 5 × 10^5 CFU/mL, 18 h at 37 °C
Experimental: as §1, §2, §3, §4, §5, §6, §7, §8, §9, §10, §11, §12, §13, §14, §15, §16

[10] = tested on: K. pneumoniae CI 138-16357-20362, PmxR; assay: microbe, parasite or virus in culture; type: cell-based, Klebsiella pneumoniae; conditions: carbapenem & polymyxin resistant clinical isolate; MHB, 5 × 10^5 CFU/mL, 18 h at 37 °C
Experimental: as §1, §2, §3, §4, §5, §6, §7, §8, §9, §10, §11, §12, §13, §14, §15, §16

[11] = tested on: K. pneumoniae CI Koprana 100650661:1, PmxR; assay: microbe, parasite or virus in culture; type: cell-based, Klebsiella pneumoniae; conditions: carbapenem & polymyxin resistant clinical isolate; MHB, 5 × 10^5 CFU/mL, 18 h at 37 °C
Experimental: as §1, §2, §3, §4, §5, §6, §7, §8, §9, §10, §11, §12, §13, §14, §15, §16

[12] = tested on: K. pneumoniae ATTC BAA-2146, NDM-1 pos; conditions: MIC K. pneumoniae ATTC BAA-2146, NDM-1 pos (µg/mL)
A. baumannii ATCC 19606 = conditions: MIC A. baumannii ATCC 19606 (µg/mL)
P. aeruginosa ATCC 27853 = conditions: MIC P. aeruginosa ATCC 27853 (µg/mL)
E. coli ATCC 25922 = conditions: MIC E. coli ATCC 25922 (µg/mL)
[13] = tested on: K. pneumoniae ATCC 700603, MDR; conditions: MIC K. pneumoniae ATCC 700603, MDR(µg/mL)
K. pneumoniae ATCC 13883 = conditions: MIC K. pneumoniae ATCC 13883 (µg/mL)

SMILES | CC50 (HepG2) [µM] | MIC S. aureus ATCC 25923, MSSA [1] [µg/mL] | MIC A. baumannii CI Ptyela 100734512:2, PmxR [2] [µg/mL] | HepG2 - CC50 (HepG2 cells) [µM] | MIC [3] [µg/mL] | MIC [4] [µg/mL] | MIC [5] [µg/mL] | MIC [6] [µg/mL] | MIC [7] [µg/mL] | MIC [8] [µg/mL] | MIC P. aeruginosa PA9704, PmxR [9] [µg/mL] | MIC K. pneumoniae CI 138-16357-20362, PmxR [10] [µg/mL] | MIC K. pneumoniae CI Koprana 100650661:1, PmxR [11] [µg/mL] | MIC [12] [µg/mL] | MIC (A. baumannii ATCC 19606) [µg/mL] | MIC (P. aeruginosa ATCC 27853) [µg/mL] | MIC (E. coli ATCC 25922) [µg/mL] | MIC [13] [µg/mL] | MIC (K. pneumoniae ATCC 13883) [µg/mL]
CC(C)C[C@@H]1NC(=O)[C@@H](Cc2ccccc2)NC(=O)[C@H](CCN)NC(=O)[C@@H](NC(=O)[C@H](CCN)NC(=O)[C@@H](NC(=O)[C@H](CCN)NC(=O)Nc2ccccc2Cl)[C@@H](C)O)CCNC(=O)[C@H]([C@@H](C)O)NC(=O)[C@H](CCN)NC(=O)[C@H](CCN)NC1=O [Compound 13] ({NH(2-ClPh)-CO}-[Dab]T[Dab][Dab][Dab][dF]L[Dab][Dab]T; lactam 4-C) | > 300 | >32 | >32 | >300 | > 32 | > 32 | > 32 | > 32 | > 32 | > 32 | >32 | >32 | >32 |  |  |  |  |  | 
CC(C)C[C@@H]1NC(=O)[C@@H](Cc2ccccc2)NC(=O)[C@H](CCN)NC(=O)[C@@H](NC(=O)[C@@H](CO)NC(=O)[C@@H](NC(=O)[C@H](CCN)NC(=O)Nc2ccccc2Cl)[C@@H](C)O)CCNC(=O)[C@H]([C@@H](C)O)NC(=O)[C@H](CCN)NC(=O)[C@H](CCN)NC1=O [Compound 17] ({NH(2-ClPh)-CO}-[Dab]T[dS][Dab][Dab][dF]L[Dab][Dab]T; lactam 4-C) | > 300 |  |  |  | > 32 | > 32 | > 32 | > 32 | > 32 | > 32 |  | >32 | >32 | > 32 | > 32 |  |  |  | 
CC(C)C[C@@H]1NC(=O)[C@@H](Cc2ccccc2)NC(=O)[C@H](CCN)NC(=O)[C@@H](NC(=O)[C@@H](CCN)NC(=O)[C@@H](NC(=O)[C@H](CCN)NC(=O)Nc2ccccc2Cl)[C@@H](C)O)CCNC(=O)[C@H]([C@@H](C)O)NC(=O)[C@H](CCN)NC(=O)[C@H](CCN)NC1=O [Compound 16] ({NH(2-ClPh)-CO}-[Dab]T[dDab][Dab][Dab][dF]L[Dab][Dab]T; lactam 4-C) | > 300 | >32 | >32 | >300 | > 32 | > 32 |  | > 32 | > 32 | > 32 | >32 | >32 | >32 |  |  |  |  |  | 
CCCCCCCC(=O)N[C@@H](CCN)C(=O)N[C@H](C(=O)N[C@@H](CCN)C(=O)N[C@H]1CCNC(=O)[C@H]([C@@H](C)O)NC(=O)[C@H](CCN)NC(=O)[C@H](CCN)NC(=O)[C@H](CC(C)C)NC(=O)[C@@H](Cc2ccccc2)NC(=O)[C@H](CCNC(=O)[C@@H](N)CCC(=O)O)NC1=O)[C@@H](C)O [Compound 32] (Octanoyl-[Dab]T[Dab][Dab][Dab](Glu)[dF]L[Dab][Dab]T; lactam 4-C) | > 300 |  |  |  | > 32 | > 32 | > 32 | > 32 | > 32 | > 32 |  | >32 | >32 |  | > 32 | > 32 | > 32 | > 32 | > 32

— article PMC4774972, “Activity and Predicted Nephrotoxicity of Synthetic Antibiotics Based on Polymyxin B” (Journal of Medicinal Chemistry, 2016)
